# Source: PubChem BioAssay (NCI)
#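 Tested at 5 concentrations; 48 h exposure; 96-well plates; endpoints linearly interpolated, else capped at highest concentration. GI50 = concentration required for 50% inhibition of growth. TGI: concentration producing complete growth inhibition.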
# Legend:
# Test in all cases: NCI tumour cell line growth inhibition, 48 h
# SNB-19 CNS = tested on: SNB-19 CNS
# LOX IMVI melanoma = tested on: LOX IMVI melanoma
# NCI-H460 lung = tested on: NCI-H460 lung
# ACHN renal = tested on: ACHN renal
# OVCAR-3 ovarian = tested on: OVCAR-3 ovarian
# HCT-15 colon = tested on: HCT-15 colon
# NCI/ADR-RES ovarian = tested on: NCI/ADR-RES ovarian
# OVCAR-5 ovarian = tested on: OVCAR-5 ovarian
# SK-MEL-28 melanoma = tested on: SK-MEL-28 melanoma
# RXF 393 renal = tested on: RXF 393 renal
# SK-MEL-5 melanoma = tested on: SK-MEL-5 melanoma
# SF-268 CNS = tested on: SF-268 CNS
# CAKI-1 renal = tested on: CAKI-1 renal
# PC-3 prostate = tested on: PC-3 prostate
# MDA-MB-435 = tested on: MDA-MB-435
# UACC-62 melanoma = tested on: UACC-62 melanoma
# KM12 colon = tested on: KM12 colon
# COLO 205 colon = tested on: COLO 205 colon
# MCF7 breast = tested on: MCF7 breast
# BT-549 breast = tested on: BT-549 breast
# A549 NSCLC = tested on: A549 NSCLC
# 786-0 renal = tested on: 786-0 renal
# M14 melanoma = tested on: M14 melanoma
# SK-MEL-2 melanoma = tested on: SK-MEL-2 melanoma
# HCC-2998 colon = tested on: HCC-2998 colon
# T-47D breast = tested on: T-47D breast
# NCI-H23 lung = tested on: NCI-H23 lung
# SF-295 CNS = tested on: SF-295 CNS
# HOP-62 NSCLC = tested on: HOP-62 NSCLC
# UACC-257 melanoma = tested on: UACC-257 melanoma
# HOP-92 NSCLC = tested on: HOP-92 NSCLC
# SNB-75 CNS = tested on: SNB-75 CNS
# SN12C renal = tested on: SN12C renal
# HT29 colon = tested on: HT29 colon
# UO-31 renal = tested on: UO-31 renal
# HS 578T breast = tested on: HS 578T breast
# NCI-H226 lung = tested on: NCI-H226 lung
# K-562 leukemia = tested on: K-562 leukemia
# DU-145 prostate = tested on: DU-145 prostate
# A498 renal = tested on: A498 renal
# SF-539 CNS = tested on: SF-539 CNS
# U251 CNS = tested on: U251 CNS
# SW-620 colon = tested on: SW-620 colon
# OVCAR-8 ovarian = tested on: OVCAR-8 ovarian
# MALME-3M melanoma = tested on: MALME-3M melanoma
# SR leukemia = tested on: SR leukemia
# IGROV1 ovarian = tested on: IGROV1 ovarian
# MOLT-4 leukemia = tested on: MOLT-4 leukemia
# HL-60(TB) leukemia = tested on: HL-60(TB) leukemia
# NCI-H522 lung = tested on: NCI-H522 lung
# OVCAR-4 ovarian = tested on: OVCAR-4 ovarian
# SK-OV-3 ovarian = tested on: SK-OV-3 ovarian
# EKVX NSCLC = tested on: EKVX NSCLC
# HCT-116 colon = tested on: HCT-116 colon
# MDA-MB-231 breast = tested on: MDA-MB-231 breast
# RPMI-8226 leukemia = tested on: RPMI-8226 leukemia
# TK-10 renal = tested on: TK-10 renal
smiles,measurement,setting,value
Cc1cc2c3ccc(C)[n+](C)c3ccc2n1C,GI50,SNB-19 CNS,2 µM
same,TGI,SNB-19 CNS,14 µM
same,GI50,LOX IMVI melanoma,5.05 µM
same,TGI,LOX IMVI melanoma,30.2 µM
same,GI50,NCI-H460 lung,3.9 µM
same,TGI,NCI-H460 lung,28.8 µM
same,GI50,ACHN renal,21.5 µM
same,TGI,ACHN renal,> 100 µM
same,GI50,OVCAR-3 ovarian,3.45 µM
same,TGI,OVCAR-3 ovarian,23.2 µM
same,GI50,HCT-15 colon,> 100 µM
same,TGI,HCT-15 colon,> 100 µM
same,GI50,NCI/ADR-RES ovarian,> 100 µM
same,TGI,NCI/ADR-RES ovarian,> 100 µM
same,GI50,OVCAR-5 ovarian,5.42 µM
same,TGI,OVCAR-5 ovarian,44 µM
same,GI50,SK-MEL-28 melanoma,6.05 µM
same,TGI,SK-MEL-28 melanoma,19.5 µM
same,GI50,RXF 393 renal,4.01 µM
same,TGI,RXF 393 renal,44.2 µM
same,GI50,SK-MEL-5 melanoma,3.65 µM
same,TGI,SK-MEL-5 melanoma,14.8 µM
same,GI50,SF-268 CNS,2.99 µM
same,TGI,SF-268 CNS,15.9 µM
same,GI50,CAKI-1 renal,30.5 µM
same,TGI,CAKI-1 renal,> 100 µM
same,GI50,PC-3 prostate,1.26 µM
same,TGI,PC-3 prostate,9.11 µM
same,GI50,MDA-MB-435,5.12 µM
same,TGI,MDA-MB-435,21.9 µM
same,GI50,UACC-62 melanoma,8.97 µM
same,TGI,UACC-62 melanoma,22.6 µM
same,GI50,KM12 colon,0.723 µM
same,TGI,KM12 colon,3.46 µM
same,GI50,COLO 205 colon,1.75 µM
same,TGI,COLO 205 colon,5.52 µM
same,GI50,MCF7 breast,4.07 µM
same,TGI,MCF7 breast,90 µM
same,GI50,BT-549 breast,2.27 µM
same,TGI,BT-549 breast,13.1 µM
same,GI50,A549 NSCLC,0.46 µM
same,TGI,A549 NSCLC,9.3 µM
same,GI50,786-0 renal,5 µM
same,TGI,786-0 renal,> 100 µM
same,GI50,M14 melanoma,17.2 µM
same,TGI,M14 melanoma,> 100 µM
same,GI50,SK-MEL-2 melanoma,7.56 µM
same,TGI,SK-MEL-2 melanoma,25 µM
same,GI50,HCC-2998 colon,2.6 µM
same,TGI,HCC-2998 colon,19.8 µM
same,GI50,T-47D breast,4.76 µM
same,TGI,T-47D breast,49 µM
same,GI50,NCI-H23 lung,2.04 µM
same,TGI,NCI-H23 lung,29.2 µM
same,GI50,SF-295 CNS,2.34 µM
same,TGI,SF-295 CNS,15.6 µM
same,GI50,HOP-62 NSCLC,2.8 µM
same,TGI,HOP-62 NSCLC,18.8 µM
same,GI50,UACC-257 melanoma,3.45 µM
same,TGI,UACC-257 melanoma,16.1 µM
same,GI50,HOP-92 NSCLC,1.97 µM
same,TGI,HOP-92 NSCLC,19.6 µM
same,GI50,SNB-75 CNS,3.15 µM
same,TGI,SNB-75 CNS,14.7 µM
same,GI50,SN12C renal,2.69 µM
same,TGI,SN12C renal,15.9 µM
same,GI50,HT29 colon,3.07 µM
same,TGI,HT29 colon,23.8 µM
same,GI50,UO-31 renal,3.79 µM
same,TGI,UO-31 renal,> 100 µM
same,GI50,HS 578T breast,3.17 µM
same,TGI,HS 578T breast,24.3 µM
same,GI50,NCI-H226 lung,12.9 µM
same,TGI,NCI-H226 lung,49.8 µM
same,GI50,K-562 leukemia,1.52 µM
same,TGI,K-562 leukemia,> 100 µM
same,GI50,DU-145 prostate,5.09 µM
same,TGI,DU-145 prostate,51.5 µM
same,GI50,A498 renal,0.357 µM
same,TGI,A498 renal,3.8 µM
same,GI50,SF-539 CNS,3.89 µM
same,TGI,SF-539 CNS,21.3 µM
same,GI50,U251 CNS,1.9 µM
same,TGI,U251 CNS,15.1 µM
same,GI50,SW-620 colon,2.15 µM
same,TGI,SW-620 colon,> 100 µM
same,GI50,OVCAR-8 ovarian,1.53 µM
same,TGI,OVCAR-8 ovarian,29.8 µM
same,GI50,MALME-3M melanoma,3.6 µM
same,TGI,MALME-3M melanoma,12.7 µM
same,GI50,SR leukemia,4.24 µM
same,TGI,SR leukemia,> 100 µM
same,GI50,IGROV1 ovarian,3.14 µM
same,TGI,IGROV1 ovarian,65.3 µM
same,GI50,MOLT-4 leukemia,3.12 µM
same,TGI,MOLT-4 leukemia,27.4 µM
same,GI50,HL-60(TB) leukemia,1.92 µM
same,TGI,HL-60(TB) leukemia,18.7 µM
same,GI50,NCI-H522 lung,4.83 µM
same,TGI,NCI-H522 lung,29.3 µM
same,GI50,OVCAR-4 ovarian,4.18 µM
same,TGI,OVCAR-4 ovarian,30.1 µM
same,GI50,SK-OV-3 ovarian,2.88 µM
same,TGI,SK-OV-3 ovarian,9.41 µM
same,GI50,EKVX NSCLC,0.456 µM
same,TGI,EKVX NSCLC,13.6 µM
same,GI50,HCT-116 colon,2.31 µM
same,TGI,HCT-116 colon,33.1 µM
same,GI50,MDA-MB-231 breast,5.14 µM
same,TGI,MDA-MB-231 breast,55.3 µM
same,GI50,RPMI-8226 leukemia,1.32 µM
same,TGI,RPMI-8226 leukemia,23.3 µM
same,GI50,TK-10 renal,13 µM
same,TGI,TK-10 renal,> 100 µM
